Laboratory results taken from US20230226095A1, “METHODS AND COMPOSITIONS FOR TREATING C[…]” (The Children's Medical Center Corporation, priority 2020, published 2023).

Tests used:
lung tissue Treg cells = test: Daily intra-tracheal instillation of Poly I:C, flow cytometry of lung T cells; format: in vivo, mice
Source text: To investigate the mechanism by which Notch4 licenses lung tissue inflammation in viral respiratory infections, its role in Poly I:C-induced airway inflammation was first examined. Poly I:C stimulates Toll like receptor 3 and the downstream viral RNA sensors cytoplasmic retinoic acid-inducible gene I (RIG-I) and melanoma differentiation-associated protein 5 (MDA5), thus providing a proxy model of RNA viral infections (Broggi et al., 2020; Iwasaki and Pillai, 2014; Kato et al., 2006). […] Treg cell specific deletion of Notch4 using a Foxp3-driven Cre recombinase (Foxp3YFPCre) and floxed Notch4 allele (Foxp3YFPCreNotch4Δ/Δ) protected the mice from the weight loss induced by the Poly I:C treatment (data not shown).
(§1) Polyinosinic-polycytidylic acid (Poly I:C) mouse model. Mice were treated intratracheally with 2.5 mg/kg of Poly I:C HMW (InvivoGen) daily for six consecutive days. The weight of the mice was recorded daily upon application of the Poly I:C. The mice were subjected to airway hyperresponsiveness at day 7, then euthanized and analyzed. For blockading amphiregulin, mice were treated with a peptide spanning amino acids 91140 of the middle region of the human amphiregulin preproprotein (amphiregulin91-140 peptide; Mybiosource). The peptide was given intratracheally at 10 µg/ml in PBS in a final volume of 100 µl. For the amphiregulin neutralizing antibody tests, the mice were given intraperitoneally 20 µg of goat anti-mouse amphiregulin mAb (clone AF989; R&D systems) or isotype control mAb (clone AB-108-C; R&D systems) daily for the duration of the experiment.

Treg cells = test: In vitro induction of Notch4 expression in Treg cells; format: cell-based; settings: Treg cells from PBS or Poly I:C-treated mice
Description: To further elucidate the mechanisms of Notch4 induction in Treg cells, in vitro studies were conducted to examine the capacity of Poly I:C and cytokine treatment to upregulate Notch4 expression in Treg cells isolated from PBS or Poly I:C-treated mice.

[1] = tested on: Foxp3YFPCre mice treated with Poly I:C; test: Recombinant amphiregulin therapy in Poly I:C-induced lung inflammation; format: in vivo; settings: data not shown
Source text: To establish the role of amphiregulin in the protection against lung inflammation induced by Notch4 depletion, the capacity of recombinant amphiregulin therapy to rescue Poly I:C-induced lung inflammation was examined. […] Recombinant amphiregulin also reversed the skewing of lung macrophages towards an M1 phenotype upon in vitro treatment with Poly I:C (FIG. 7H), mirroring the same effect of Foxp3YFPCreNotch4Δ/Δ Treg cells (data not shown).
as §1

lung macrophages = test: Lung macrophage M1/M2 polarization in vitro upon Poly I:C treatment; format: cell-based, mice; settings: in vitro treatment with Poly I:C
Description: Regulatory T-cell co-cultures with macrophages. Macrophages cells are isolated from lungs of Poly I:C-treated mice. Macrophages were isolated based on CD45^+ F4/80^+ MHCII^+. Macrophages were then co-cultured (at 1:1 concentration) with lungs Treg cells from Foxp3^YFPCre or Foxp3^YFPCreNotch4^Δ/Δ mice Poly I:C-treated mice. Cells were treated with Poly I:C at a concentration of 10 ug/ml for three days. After 72 h, M1 (F4/80^+ MHCII^+ CD68^+ CD80^+CD86^+) and M2 (F4/80^+ MHCII^+ CD163^+ CD206^+) polarization was measured by flow cytometric analysis.
M1 and M2 gating strategy. M1 was defined as follows: CD45^+CD4^-F4/80^+MHCII^+ CD68^+ CD80^+CD86^+ while M2 macrophages were defined as follows: CD45^+CD4^-F4/80^+ MHCII+CD163+CD206+.

[2] = daily intra-tracheal for 6 consecutive days

| Molecule | expression of Hippo pathway effector Yap in lung tissue Treg cells (lung tissue Treg cells; Poly I:C treatment) | expression of Wnt pathway effector beta-Catenin in lung tissue Treg cells (lung tissue Treg cells; Poly I:C treatment) | expression of Notch4 on CD4+ Teff cells (lung tissue Treg cells; [2]) | frequencies and absolute numbers of Notch4 expressing lung tissue Treg cells and MFI of Notch4 (lung tissue Treg cells; [2]) | Notch4 expression in lung Treg cells (Treg cells) | Notch4 expression in splenic Treg cells (Treg cells) | epithelial barrier function ([1]; Poly I:C treatment) | inflammatory responses induced by Poly I:C treatment [1] | weight loss induced by Poly I:C treatment [1] | skewing of lung macrophages towards an M1 phenotype (lung macrophages) |
| --- | --- | --- | --- | --- | --- | --- | --- | --- | --- | --- |
| Polyinosinic-polycytidylic acid [Poly I:C] | potently induced | unchanged | minimal expression | sharp progressive increase | increased Notch4 expression | not splenic |  |  |  |  |
| recombinant amphiregulin: recombinant epidermal growth factor-like cytokine amphiregulin, necessary for tissue repair (protein, UniProt P15514 101-187, looked up) Amphiregulin: SVRVEQVVKPPQNKTESENTSDKPKRKKKGGKNGKNRRNRKKKNPCNAEFQNFCIHGECKYIEHLEAVTCKCQQEYFGERCGEKSMK |  |  |  |  |  |  | restoration of an intact epithelial barrier function | largely abrogated | largely abrogated | reversed |
